Here are results for 21 compounds from US20070027634A1, “Molecular hepatotoxicology modeling” (priority 2002, published 2007).

The conditions of data set [1]: cited from earlier work.
The conditions of data set [2]: cited from earlier work. The source holds these as a separate data set.
The conditions of data set [3]: in vivo; cited from earlier work.
A short description of data set [4]: Serum clinical chemistry of dosed rats (studies by the present inventors). To be noted: AY-25329; as early as 6 hours after the first dose; 14 day study.
Data set [5] can be described thus: Light microscopic analysis of liver and kidney of dosed rats (present inventors).
For data set [6] the following is noted: dogs, after treatment; cited from earlier work.
For data set [7] the following is noted: rat liver mitochondria; cited from earlier work.
The conditions of data set [8]: cited from earlier work. The source holds these as a separate data set.
For data set [9] the following is noted: rats and mice; cited from earlier work.
The conditions of data set [10]: mice; cited from earlier work.
The subject of data set [11] is rat hepatocytes. To be noted: cited from earlier work.
The conditions of data set [12]: rats and hamsters; cited from earlier work.
The conditions of data set [13]: hamster livers; cited from earlier work.
Data set [14] has as its system human hepatoma cell lines. Particulars: cited from earlier work.
The conditions of data set [15]: in vivo; cited from earlier work. The source holds these as a separate data set.
The mark [16] stands for this setting: 14 days of repeated dosing, 250 mg/kg/day.
The mark [17] stands for this setting: male Sprague Dawley rats, 0.1, 1, 2, 3, 4 mL/kg ip, […] po.
Setting [18] is: male Sprague Dawley rats, peak within 48 hours post dose.
Where [19] appears, read: acute administration, male rats.

Bounds are passed on as bounds.

For `CC(=O)Nc1ccc2c(c1)Cc1ccccc1-2` [2-AAF, 2-acetylaminofluorene], in data set [1] (rats), the “ALT (alanine aminotransferase) level in serum or plasma” value (shortened to “ALT (alanine aminotransferase) level”) is recorded as “elevated” and the “AST (aspartate aminotransferase) level in serum or plasma” value (“AST (aspartate aminotransferase) level” below) was “elevated”. The “liver finding (pathology)” value in data set [2] (rats) is listed as “cirrhosis-like changes in the liver”.

Regarding `C#C[C@]1(O)CC[C@H]2[C@@H]3CCc4cc(O)ccc4[C@H]3CC[C@@]21C` [17α-ethinylestradiol], in data set [1] (male rats), the plasma cholesterol level result is reported as “decrease”, the “plasma level of bile salts” value is reported as “not changed”, the “plasma level of bilirubin” value is listed as “not changed” and the plasma triglyceride level result is “decrease”. Moreover, in data set [1] (rats), the “ALT (alanine aminotransferase) level” value is recorded as “not changed” and the “AST (aspartate aminotransferase) level” value is “not changed”. In addition, in data set [2] (male rats), the “activity of liver enzyme alkaline phosphatase” value is “initially showed significant increases, but enzyme levels decreased after 3 days”; the “activity of liver enzyme leucine aminopeptidase” value was “initially showed significant increases, but enzyme levels decreased after 3 days”; the bile flow entry is on record as “decrease”; the bilirubin output result is “increased”. In data set [2] (male rats), the “glutathione (GSH) output” value is “decreased”. In addition, in data set [2] (rats), the “liver finding (pathology)” value is on record as “reversible intrahepatic cholestasis” and the liver weight result is listed as “increase”.

Regarding `S=C=Nc1cccc2ccccc12` [ANIT, α-naphthylisothiocyanate], in data set [3], the activity of catalase result was “decreased”, the “activity of superoxide dismutase” value is recorded as “decreased”, the “serum glutamic oxaloacetic transaminase” value is “increase” and the “serum glutamic pyruvic transaminase” value is “increase”. In data set [3], the “serum level of alkaline phosphatase” value is reported as “increase”, the “serum level of total bilirubin” value is listed as “increase” and the total bile flow entry is “reduced”.

As to `O=C(CCN1CCN2CCCC2C1)N1c2ccccc2Sc2ccc(Cl)cc21` (stereo not drawn) [AY-25329], in data set [4], the “serum level of ALT” value is “statistically significant increases”, the “serum level of BUN” value was “statistically significant increases”, the “serum level of cholesterol” value is “statistically significant increases” and the “serum level of creatinine” value is recorded as “statistically significant increases”. For the same compound, the “serum level of triglycerides” value in data set [4] is “statistically significant increases”. Further, in [5] (setting [16]), the kidney finding entry is “nephrosis”; the liver finding result was “alterations in the peripheral lobes of the liver and in the cytoplasm of hepatocytes”. Besides, in data set [5] (liver, 6 and 24 hours), the “hepatocytic mitotic figures (light microscopy)” value was “increased number” and the “liver glycogen content (light microscopy)” value is “decreased”.

Turning to `ClC(Cl)(Cl)Cl` [CCl4, carbon tetrachloride], the “serum α-glutathione s-transferase (α-GST) level” value in [1] (male SD rats, 25 μL/kg po, as early as 2 hours after administration) is “Significant increases”. In data set [1] (setting [17]), the “time after administration within which ALT level increases” value is no more than 3 h and the “time after administration within which AST level increases” value was no more than 3 h. In addition, in [1] (setting [18]), the “peak increase of ALT level” value is given as 5-10 fold and the “peak increase of AST level” value is recorded as 5-10 fold. Further, the “time of peak centrilobular necrosis and inflammatory infiltration” value in data set [2] (acute administration, male rats, post dose) was 24 to 48 h. Also, in data set [2] (setting [19]), the “time to cytoplasmic accumulation of lipids in hepatocytes” value is 1 to 3 h; the “time to focal necrosis and hydropic swelling of hepatocytes” value is 5 to 6 h; the “time to full restoration of the liver” value is given as no more than 14 days.

`Cl.Nc1nc2c(Cc3ccsc3)c[nH]c2c(=O)[nH]1.O` [CI-1000, 4H-pyrrolo:3,2-d:pyrimidin-4-one, 2-amino-3,5-dihydro-7-(3-thienylmethyl)-monohydrochloride monohydrate]: the “serum ALT level” value in [6] is listed as “increased”.

With `CC(=O)O[C@]1(C(C)=O)CC[C@H]2[C@@H]3C=C(Cl)C4=CC(=O)[C@@H]5C[C@@H]5[C@]4(C)[C@H]3CC[C@@]21C` [CPA, Cyproterone acetate], the “time after which continuous DNA repair activity was observed” value in [2] (rats, single oral dose) is 16 h. Moreover, in [2] (rats), the “occurrence of S phase cells in rat liver” value is on record as “increased”.

For the compound `CN(C)N=O` [DMN, dimethylnitrosamine], in [1] (rats), the “ALT (alanine aminotransferase) level” value is on record as “increased”, the “serum SOD” value is reported as “decreased” and the “serum malondialdehyde (MDA)” value is listed as “increased”. In data set [2] (rats), the “hydroxyproline levels (indicator of fibrosis)” value is reported as “elevated”; the “liver finding (pathology)” value is “severe centrilobular congestion and haemorrhagic necrosis”.

Take `Cc1cccc(Nc2cc(Cl)nc(SCC(=O)O)n2)c1C` [Wy-14643]: the oxidative phosphorylation result in [7] is given as “capable of uncoupling oxidative phosphorylation”.

On to `CC(=O)Nc1ccc(O)cc1` [acetaminophen], for which, in data set [1] (rats), the “ALT (alanine aminotransferase) level” value was “statistically significant elevations” and the “AST (aspartate aminotransferase) level” value is given as “statistically significant elevations”. In addition, in [2] (rats), the “liver finding (pathology)” value is given as “hepatocellular necrosis” and the “time after dosing at which hepatotoxicity can be observed” value was 24 h.

For the compound `CC(O)(CS(=O)(=O)c1ccc(F)cc1)C(=O)Nc1ccc(C#N)c(C(F)(F)F)c1` (stereo not drawn) [bicalutamide], the “levels of CYP3A1” value in data set [2] (rats) was “elevated levels”. In addition, in [8] (humans), the “ALT / glutamic-pyruvic transaminase (GPT) level” value is given as “elevated levels”, the “AST / glutamic-oxalacetic transaminase (GOT) level” value was “elevated levels” and the “alkaline phosphatase (AL-P) level” value is listed as “elevated levels”. For the same compound, in data set [8] (prostate cancer patients), the “gamma guanosine 5′-triphosphate (gamma-GTP) level” value is on record as “elevated levels”.

For the compound `ClC(Cl)Cl` [chloroform, Chloroform], in [2] (setting [19]), the “time to cytoplasmic accumulation of lipids in hepatocytes” value was 1 to 3 h; the “time to focal necrosis and hydropic swelling of hepatocytes” value was 5 to 6 h. In addition, in data set [9], the “level of BUN” value is on record as “increased levels”, the level of phosphatidyl-ethanolamine entry is reported as “decreased levels”, the “level of serum creatinine” value is on record as “increased levels” and the “level of tissue glutathione (GSH)” value was “decreased levels”. In addition, the “levels of 5-methylcytosine and of the methylated c-myc gene” value in [10] was “Decreased levels”. The “markers of hepatocellular regeneration (alpha-fetoprotein, retinol-binding protein, gamma-glutamyl transferase and des-gamma-carboxyprothrombin)” value in data set [8] (humans, poisoning) is given as “increased levels”. Besides, in data set [8] (humans), the “alkaline phosphatase (AL-P) level” value is given as “decreased levels”.

For the compound `CCOC(=O)C(C)(C)Oc1ccc(Cl)cc1` [clofibrate], the “levels of copper in neoplastic liver tissues” value in data set [2] (rat study of liver hyperplasia and liver tumors) was “increased levels”. In data set [2] (rats), the “liver finding (pathology)” value was “hepatocellular hypertrophy, cellular proliferation, hepatomegaly, induction of CYP450 isozymes, and induction of palmitoyl CoA oxidation”.

On to `O=C(O)c1cc(-c2ccc(F)cc2F)ccc1O` [diflunisal], for which, in data set [11] (rat hepatocytes), the “LDH (lactic acid dehydrogenase) leakage” value is listed as “increase” and the “intracellular ATP” value is recorded as “decreased”.

For `Cc1ccc(C)c(OCCCC(C)(C)C(=O)O)c1` [gemfibrozil], in [12], the DT-diaphorase activity entry is listed as “increase” and the alpha-tocopherol result was “decrease”.

Turning to `NN` [hydrazine, Hydrazine], in data set [2] (rats), the “liver finding (pathology)” value is “induction of fatty liver” and the liver weight result is reported as “increases”. Further, in [11] (rat hepatocytes), the GSH result was “depletion”, the “LDH (lactic acid dehydrogenase) leakage” value is given as “leakage”, the “intracellular ATP” value is recorded as “depletion” and the “rate of protein synthesis” value is “decreased”. Moreover, the viability result in data set [11] (rat hepatocytes) is “dose-dependent loss”. The “hepatic adenomas and carcinomas” value in data set [13] is “developed in a dose-dependent manner”.

As to `COc1ccc2c(c1)c(CC(=O)O)c(C)n2C(=O)c1ccc(Cl)cc1` [indomethacin], the “liver and renal microsomal enzymes, including CYP450” value in data set [2] (rats, single dose) is on record as “reduce”.

Consider `Cl.Nc1c2c(nc3ccccc13)CCCC2` [tacrine, 1,2,3,4-tetrahydro-9-aminoacridine-hydrochloride], for which, in [2] (rats), the “liver finding (pathology)” value was “have not shown a correlation between tacrine exposure and hepatotoxicity”. The cytotoxicity result in [11] (primary rat hepatocytes) and in data set [14] was “displayed cytotoxicity” each time.

In the case of `CC(=N)S` [thioacetamide, Thioacetamide], in data set [1] (rats), the “ALT (alanine aminotransferase) level” value is reported as “elevated levels”, the “AST (aspartate aminotransferase) level” value is listed as “elevated levels”, the “serum BUN” value is “elevated levels” and the “serum TNFα” value is reported as “elevated levels”. Further, in data set [1] (rats), the serum creatinine result is reported as “elevated levels” and the serum total bilirubin entry is listed as “elevated levels”.

As to `CCCC(CCC)C(=O)O` [valproate, n-dipropylacetic acid], the “liver finding (pathology)” value in [2] (rats) is recorded as “microvesicular steatosis”. Also, in [11] (cultured rat hepatocytes), the “amounts of acyl-CoA esters” value is “increased amounts”. For the same compound, the “LDH (lactic acid dehydrogenase) leakage” value in data set [11] (rat hepatocytes) is “dose-dependent leakage”. In addition, the “share of patients with elevated levels of hepatic enzymes” value in [8] (patients) is “about 40%”.

Regarding `CC(c1cc2ccccc2s1)N(O)C(N)=O` (stereo not drawn) [zileuton], in data set [15], the “levels of liver peroxisomal palmitoyl CoA oxidase” value is “elevated levels”; the “levels of microsomal cytochromes P450 2B and P450 4A” value is recorded as “elevated levels”; the liver size entry is “hepatomegaly”.
